Laboratory results published in patent US20190292546A1, “TLR3 AGONIST FOR USE FOR INDUCING APOPTOSIS IN SENESCENT CANCER CELLS” (Centre Léon-Bérard, priority 2016, published 2019).
“Also recorded” adds a separate entry of the source.

Columns and labels:
NCI-H292 cells = test: TLR3 expression by intracellular staining and flow cytometry; format: cell-based, human; conditions: 7 days of culture with paclitaxel 4 nM, anti-TLR3.1 antibody, FIG. 4
Method: To ascertain that TLR3 expression was not lost upon senescence, Paclitaxel-Treated Cells were harvested, fixed and permeabilized with the Cytoperm/Cytofix kit (Becton Dickinson), then stained at 4° C. for TLR3 (anti-TLR3.1 antibody (Dendritics)+goat anti-mouse Alexa 647) and analyzed on a Becton Disckison FACSCalibur flow cytometer.

[1] = system: NCI-H292 human Non-Small-Cell Cancer Cells; test: IL-8 secretion in culture supernatant by ELISA; format: cell-based; conditions: 4 nM paclitaxel, 1, 3 or 7 days, last 24H of culture, FIG. 3
Method: NCI-H292 human Non-Small-Cell Cancer Cells were plated at 5000 cells/cm^2 in a 6-well plate in RPMI supplemented with 10% FCS and 1% Hepes/1% NAPy/PS. […] The following tests were then performed to ascertain the Paclitaxel-Treated Cells' senescence status.
(§1) 1) An inverted phase-contrast light microscope was used at 40× magnification to evaluate morphology of the Paclitaxel-Treated Cells. […] 2) The senescence-associated β-galactosidase [SA-β-GAL] activity was measured in the Paclitaxel-Treated Cells described above using the Senescence beta-galactosidase Staining Kit (Cell Signaling Technology) (FIG. 2). 3) The secretion of IL-8 as part of the senescence-associated secretome (Tchkonia et al., 2013; J Clin Invest. 123(3):966-72) was quantified in the culture supernatant of the Paclitaxel-Treated Cells using an ELISA kit (Biolegend Kit hulL8), and read on a TECAN microplate reader).

[2] = system: NCI-H292 human Non-Small-Cell Cancer Cells; test: Senescence status of Paclitaxel-Treated Cells (phase-contrast morphology, SA-β-GAL, IL-8); format: cell-based; conditions: 4 nM paclitaxel
Method: (§2) NCI-H292 human Non-Small-Cell Cancer Cells were plated at 5000 cells/cm^2 in a 6-well plate in RPMI supplemented with 10% FCS and 1% Hepes/1% NAPy/PS. They were treated after 16-24 hours of plating and for 7 to 10 days with 4 nM paclitaxel (Sigma) or with DMSO (“solvent”), with a change of medium on day 4. The following tests were then performed to ascertain the Paclitaxel-Treated Cells' senescence status.
as §1

[3] = system: TLR3 WT and TLR3 KO NCI-H292 untreated or Paclitaxel-Treated Cells; test: TLR3-triggered apoptosis (Annexin V-FITC/PI flow cytometry) in Paclitaxel-Treated Cells; format: cell-based, human; conditions: 4 μg/ml Poly(I:C), 24 hours, paclitaxel-induced senescent vs untreated NCI-H292, FIG. 5
Method: as §2
TLR3 WT and TLR3 KO NCI-H292 untreated or Paclitaxel-Treated Cells were incubated for 24 hours with 4 μg/ml Poly(I:C) (Invivogen), then cells were stained at 4° C. with Annexin V-FITC and PI (Biolegend) and analyzed on a Becton Disckison FACSCalibur flow cytometer.

[4] = system: Untreated or Oxidative Stress-induced Senescent WT and TLR3 KO NCI-H292 Cells; test: TLR3-triggered apoptosis (Annexin V-FITC flow cytometry) in Oxidative Stress-induced Senescent Cells; format: cell-based, human; conditions: 10 μg/ml Poly(I:C), 24 hours, senescence by 300 μM H2O2 vs untreated NCI-H292, FIG. 7
Method: NCI-H292 human Non-Small-Cell Cancer Cells were plated at 5000 cells/cm^2 in a 6-well plate in RPMI supplemented with 10% FCS and 1% Hepes/1% NAPy/PS. They were treated with 300 μM H2O2 16 hours after plating, and the medium was changed 1 hour after H2O2 treatment.
(§3) Oxidative Stress-induced Senescent Cells' susceptibility to TLR3-triggered apoptosis was measured. Untreated or Oxidative Stress-induced Senescent WT and TLR3 KO NCI-H292 Cells were incubated for 24 hours with 10 μg/ml Poly(I:C) (Invivogen), then cells were stained at 4° C. with Annexin V-FITC (Biolegend) and analyzed on a Becton Disckison FACSCalibur flow cytometer.

[5] = system: Untreated or Radiation-Induced Senescent WT and TLR3 KO NCI-H292 Cells; test: TLR3-triggered apoptosis (Annexin V-FITC PI flow cytometry) in Radiation-Induced Senescent Cells; format: cell-based, human; conditions: 10 μg/ml Poly(I:C), 24 hours, senescence by 8 Grey irradiation vs untreated NCI-H292, FIG. 6
Method: NCI-H292 human Non-Small-Cell Cancer Cells were plated at 5000 cells/cm^2 in a 6-well plate in RPMI supplemented with 10% FCS and 1% Hepes/1% NAPy/PS. They were irradiated with 8 Grey 16 hours after plating, and the medium was changed right after irradiation.
as §3, with “Radiation-Induced” for “Oxidative Stress-induced”, “V-FITC PI” for “V-FITC”

Row | Molecule | expression of TLR3 by NCI-H292 cells (NCI-H292 cells) | secretion of IL-8 in the culture supernatant [1] | morphology of the Paclitaxel-Treated Cells (observed changes) ([2]; 7 to 10 days, NCI-H292, phase-contrast microscopy 40x, FIG. 1) | senescence status of the cells ([2]; NCI-H292, FIGS. 1-3) | susceptibility to TLR3-triggered apoptosis [3] | susceptibility to TLR3-triggered apoptosis [4] | susceptibility to TLR3-triggered apoptosis [5]
1 | CC(=O)O[C@H]1C(=O)[C@@]2(C)[C@H]([C@H](OC(=O)c3ccccc3)[C@]3(O)C[C@H](OC(=O)[C@H](O)[C@@H](NC(=O)c4ccccc4)c4ccccc4)C(C)=C1C3(C)C)[C@]1(OC(C)=O)CO[C@@H]1C[C@@H]2O [Paclitaxel, paclitaxel] | increased | Large amounts of IL-8 | a stop in cell division and enlargement in size | have become senescent | – | – | –
2 | Polyinosine-polycytidylic acid [Poly(I:C)] | – | – | – | – | more sensitive to TLR3-triggered apoptosis | induces apoptosis; also recorded: more sensitive to TLR3-triggered apoptosis | induces apoptosis; also recorded: more sensitive to TLR3-triggered apoptosis
